Results taken from patent US20160313301A1, “METHOD FOR PREDICTING ANTITUMOR EFFICACY OF HSP90 INHIBITOR IN CANCER TREATMENT” (NIPPON KAYAKU KABUSHIKI KAISHA, priority 2013, published 2016).

Test system: client proteins and HSP90-related proteins in TOV-21G tumor
Assay: Immunoblot: change in expression amount of proteins in TOV-21G tumor after administration
Type: in vivo, human
Conditions: 40 mg/kg tail vein
Experimental: Thirty micrograms of total protein was subjected to electrophoresis in 8% acrylamide gel. Then, the protein was transferred onto a PVDF membrane at a voltage of 100 V for 60 min at 4 °C. The PVDF membrane on which the protein had been transferred was blocked in TBS-Tween (0.1%) containing 5% milk at normal temperature for 60 min, followed by incubating with each of primary antibodies described below overnight at 4 °C. • Primary antibody (supplier, product number, dilution ratio, exposure time) • EGFR (Santa Cruz, sc-003, 1:500, 1 min) • HER2 (Santa Cruz, sc-284, 1:2000, 5 sec) • HER3 (Santa Cruz, sc-285, 1:400, 1 min) • Met (Santa Cruz, sc-161, 1:500, 5 min) • IGF-1R (Cell Signaling, #3027, 1:500, 15 sec) • Raf-1 (Santa Cruz, sc-133, 1:300, 5 min) • Stat3 (BD Transduction Laboratory, 610189, 1:500, 15 sec) • pAkt (Cell Signaling, #4058S, 1:500, 1 min) • Akt (Cell Signaling, #4691S, 1:2000, 15 sec) • pERK (Santa Cruz, sc-16982-R, 1:500, 1 min) • ERK (Invitrogen, 44-654G, 1:1000, 15 sec) • mTOR (Cell Signaling, #2983S, 1:500, 15 sec) • MEK (Cell Signaling, #9122S, 1:500, 1 min) • HSP90 (Enzo Life Science, SPA-830, 1:500, 15 sec) • HSP70 (Enzo Life Science, SPA-810, 1:2000, 15 sec) • Actin (Santa Cruz, sc-8432/HRP, 1:300, 5 min)
After incubation, the blot membrane was washed with TBS-Tween (0.1%) at normal temperature for 10 min three times to thereby remove excessive primary antibodies. Then, the membrane was incubated with an appropriate secondary antibody (anti-rabbit IgG HRP conjugate or anti-mouse IgG HRP conjugate) at normal temperature for 60 min. The membrane was washed with TBS-Tween (0.1%) at normal temperature for 10 min three times to thereby remove excessive secondary antibodies. Then, the membrane was incubated with ECL Western Blotting Detection Reagents (GE Healthcare) for 2 min, followed by exposing to an X-ray film. Thus, the signal of the intended protein was detected.
Tumors to be transplanted derived from human ovarian cancer cell lines SK-OV-3 and TOV-21G were prepared in the same manner as in Example 1.
Protein extraction liquid was obtained from each tumor as follows. The human ovarian cancer tumors maintained by passage in SCID mice were transplanted subcutaneously to the dorsums of SCID mice with trocars. When the tumor volume of each tumor reached about 300 mm^3, the triazole (A-1) synthesized as the HSP90 inhibitor in Synthetic Example 1 was administered into a tail vein of each of the mice at a dose of 40 mg/kg in the same manner as in Example 1. The tumors were removed before and 4 and 24 hours after administration. At each time point, the tumors were removed from three mice for the SK-OV-3 tumor and two mice for the TOV-21G tumor. Protein extraction liquids were obtained in the same manner as in Example 1. The total protein amount in each of the extraction liquids was quantified in the same manner as in Example 1.
The immunoblot method was used to verify change in expression amounts of the client proteins and the HSP90-related proteins in the SK-OV-3 and TOV-21G tumors to which the triazole compound (A-1) had been administered, in the same manner as in Example 1. The types and dilution ratios of primary antibodies and secondary antibodies used were the same as in Example 1.

CC(C)c1cc(-c2n[nH]c(=O)n2-c2ccc(CN3CCN(C)CC3)cc2)c(O)cc1O [A-1, 5-(2,4-dihydroxy-5-isopropyl-phenyl)-4-[4-(4-methyl-piperazin-1-ylmethyl)-phenyl]-2,4-dihydro-[1,2,4]triazol-3-one]
expression amount of total Akt: not changed | expression amount of total ERK: not changed | expression level of EGFR: decreased | expression level of HER2: decreased | expression level of IGF-1R: decreased | expression level of Met: decreased | expression level of mTOR: decreased | expression level of pAkt: decreased
